Test results from US20250213560A1, “NITROGEN-CONTAINING HETEROCYCLIC COMPOUNDS HAVING PHENYL GROUP AND USES THEREOF” (BNH RESEARCH CO., LTD., priority 2022, published 2025).

Key:
[1] = tested on: APP/PS1 mice; assay: Barrel cortex TC potency and GABA/AMPA ratio in Alzheimer's model mice; format: in vivo, mouse
Experimental: All electrophysiological experiments were conducted at 27 to 29° C. For electrophysiological experiments, electrodes with […] resistance were used and stimuli were applied to the ventral posteromedial nucleus (VPM) using a concentric bipolar electrode (FHC, Bowdoin, ME). The somatosensory cortex was identified by the presence of barrels under 4×magnification and differential interference contrast (DIC) optics, and by the ability to evoke short and constant latency field excitatory postsynaptic potentials (fEPSPs) by VPM stimulation. […]
For the minimal stimulation protocol (Potency), VB thalamic stimulation intensity was adjusted to find the lowest intensity that elicited a mixture of synaptic responses and failures. Failure rate was calculated as the number of failures/total number of trials. Potency was calculated as the mean EPSC peak amplitude excluding failures (see Chittajallu & Isaac, 2010, Emergence of cortical inhibition by coordinated sensory-driven plasticity at distinct synaptic loci, DOI: 10.1038/nn.2639; see Isaac et al., 1997, Silent Synapses during Development of Thalamocortical Inputs, https://doi.org/10.1016/S08966273 (00) 80267-6; and see Stevens & Wang, 1995, Facilitation and depression at single central synapses, DOI: 10.1016/08966273 (95) 90223-6). […]

[2] = tested on: HDAC 1 to 9, and 11; assay: HDAC catalytic activity assay (fluorogenic substrate, 10-dose IC50); format: biochemical; details: 3-fold serial dilution starting at 100 μM, duplicates
Experimental: The compound was resuspended in 100 mM DMSO and tested in a 10-dose IC50 with 3-fold serial dilution starting at 100 μM against HDACs 1-9, and 11. As reference compounds, Trichostatin A (TSA) and TMP269 were tested in a 10-dose IC50 with 3-fold serial dilution starting at 10 μM or 1 μM.
10 μM Fluorogenic peptide from p53 residues 379-382 (RHKK (Ac) AMC) was used for the substrate for HDAC 1, 2, 3, and 6. 50 μM Fluorogenic HDAC Class2a Substrate (Trifluoroacetyl Lysine) was used for the substrate for HDAC 4, 5, 7, 9, and 11. 100 μM Fluorogenic peptide from p53 residues 379-382 (RHK (Ac) K (Ac) AMC) was used for the substrate for HDAC8.
IC50 values were calculated using the GraphPad Prism 4 program based on a sigmoidal dose-response equation and the blank (DMSO) value concentration was entered as 1.00E-12 M for curve fitting.
The experiments were performed in duplicates.

[3] = tested on: BDNF; assay: BDNF expression in SH-SY5Y cells; format: cell-based, human; details: 1 μM, application for 6 and 24 hours
Experimental: (§1) Human undifferentiated neuroblastoma cell line SH-SY5Y and human embryonic kidney cell line (HEK)-293T were purchased from Korean Cell Line Bank (Korea) and Takara (Japan), respectively. Cells were grown in HyClone Minimal Essential Medium (MEM) and Dulbecco's Modified Eagle Medium (DMEM), respectively, supplemented with 10% (v/v) fetal bovine serum (FBS), penicillin (100 U/mL), and streptomycin ([…]). Cells were maintained in a humidified atmosphere of 95% air and 5% CO2 at 37° C. Cells were passaged 10 times at maximum. Cells were dissociated using 0.05% trypsin-EDTA solution and the cells were seeded in new culture dishes for maintenance.
(§2) RT-PCR was used to measure the amount of BDNF and GluN2B in response to compounds of the present disclosure. 293T cells were dissociated using 0.05% Trypsin-EDTA solution and seeded in 24 well or 6 well dishes for RNA work. After incubation at 37° C. in a humidified atmosphere with 5% CO2 for 24 hours, the culture medium was replaced by a medium containing a series of concentrations of tested compounds diluted with the DMEM without FBS. Time course experiments were performed. The same volume of DMSO was used for negative control.
(§3) Similarly, BnH12003 (1 μM) augmented BDNF and GluN2B expression by application for 6 and 24 hours in SH-SY5Y cells (FIGS. 11A and 11B).

[4] = tested on: GluN2B; assay: GluN2B expression in SH-SY5Y cells; format: cell-based, human; details: 1 μM, application for 6 and 24 hours
Experimental: as §1, §2, §3

## C[C@H]1CC[C@@H](C(=O)O)CN1C(=O)Cc1ccc(-c2cncnc2)cc1 [BnH12003, (3R,6S)-6-methyl-1-(2-(4-(pyrimidin-5-yl)phenyl)acetyl) piperidine-3-carboxylic acid]
[1]; barrel cortex layer 4, Os pump 3 μM
  GABA/AMPA ratio (balance of excitation/inhibition): maintaining the balance of excitation/inhibition
[1]; barrel cortex layer 4, Os pump, BnH12003 3 μM, solanezumab 200 μg
  excitatory TC synaptic potential (TC potency): increased the excitatory TC synaptic potential
[2]
  inhibitory effect on HDAC catalytic activities (10-dose IC50): did not show any inhibitory effect
[3]
  BDNF expression: augmented
[4]
  GluN2B expression: augmented
